# In ChEMBL document CHEMBL5046254, “Mycobactin Analogues with Excellent Pharmacokinetic Profile Demonstrate Potent Antitubercular Specific Activity and Exceptional Efflux Pump Inhibition” (J Med Chem, 2022):
# Activity calls are given as the source filed them. No cut-off for these calls is given here.
# Columns and labels:
# [1] = test system: Mycolicibacterium smegmatis; assay: Antitubercular activity against Mycobacterium smegmatis mc2155 ATCC 700084 cultured in GAST media incubated for 24 hrs by resazurin microtiter assay; format: functional
# [2] = test system: Mycolicibacterium smegmatis; assay: Antitubercular activity against Mycobacterium smegmatis mc2155 ATCC 700084 cultured in GAST-Fe media incubated for 24 hrs by resazurin microtiter assay; format: functional
# [3] = test system: Mycolicibacterium aurum; assay: Antimycobacterial activity against Mycobacterium aurum ATCC 10437 cultured in GAST media incubated for 72 hrs by resazurin microtiter assay; format: functional
# [4] = test system: Mycolicibacterium aurum; assay: Antimycobacterial activity against Mycobacterium aurum ATCC 10437 cultured in GAST-Fe media incubated for 72 hrs by resazurin microtiter assay; format: functional
# [5] = test system: Mycolicibacterium smegmatis; assay: Bacteriostatic activity against Mycobacterium smegmatis mc2155 ATCC 700084 assessed as inhibition of bacterial growth preincubated for 48 hrs followed by agar surface scraped and transfer to GAST medium and measured after 5 days by HT-SPOTi assay; format: functional, organism-based; details: time 7.0 day
# [6] = test system: Mycolicibacterium smegmatis; assay: Antibacterial activity against Mycobacterium smegmatis mc2155 ATCC 700084 cultured in iron supplemented medium assessed as inhibition of siderophore production at 4 ug/ml measured after 3 hrs by CAS assay relative to control; format: functional; parameters: scale not given: the % may be the effect or the level left; details: dose 4 µg/ml
# [7] = molecular target: T1, Salicyl-AMP ligase / salicyl-S-ArCP synthetase (Mycobacterium tuberculosis) (UniProt P71716); assay: Binding affinity to Mycobacterium tuberculosis MbtA assessed as change in thermal stability at 100 uM incubated for 1 hr in presence of ATP at pH 7.5 by thermo fluorometer analysis
# T1 sequence (whole entry): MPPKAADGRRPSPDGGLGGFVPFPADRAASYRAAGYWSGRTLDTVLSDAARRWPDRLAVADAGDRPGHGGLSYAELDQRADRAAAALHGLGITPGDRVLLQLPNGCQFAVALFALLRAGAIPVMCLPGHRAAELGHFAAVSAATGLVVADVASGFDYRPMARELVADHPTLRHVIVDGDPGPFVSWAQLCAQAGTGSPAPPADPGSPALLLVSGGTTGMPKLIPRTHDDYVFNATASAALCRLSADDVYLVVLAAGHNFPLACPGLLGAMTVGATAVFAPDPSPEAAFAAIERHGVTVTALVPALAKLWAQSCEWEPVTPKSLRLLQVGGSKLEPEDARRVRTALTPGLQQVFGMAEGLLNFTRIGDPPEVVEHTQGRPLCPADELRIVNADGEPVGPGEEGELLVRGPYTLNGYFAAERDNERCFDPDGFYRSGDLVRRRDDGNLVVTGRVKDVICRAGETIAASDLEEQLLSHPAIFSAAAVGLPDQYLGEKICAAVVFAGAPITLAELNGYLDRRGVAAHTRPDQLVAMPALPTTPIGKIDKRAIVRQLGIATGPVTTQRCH
# [8] = molecular target: T1, Salicyl-AMP ligase / salicyl-S-ArCP synthetase (Mycobacterium tuberculosis); assay: Binding affinity to Mycobacterium tuberculosis MbtA assessed as change in thermal stability at 100 uM incubated for 1 hr in presence of ATP at pH 8.5 by thermo fluorometer analysis
# [9] = test system: Mycolicibacterium smegmatis; assay: Antibacterial activity against Mycobacterium smegmatic mc2155 ATCC 700084 assessed as inhibition of efflux pump using ethidium bromide as substrate measured every min for 45 mins; format: functional, organism-based
# [10] = test system: RAW264.7; assay: Cytotoxicity against mouse RAW264.7 cell assessed as inhibition of growth measured for 48 hrs by resazurin microtiter assay; format: functional
# [11] = test system: THP-1; assay: Cytotoxicity against human THP-1 cells assessed as inhibition of growth measured for 48 hrs by resazurin microtiter assay; format: functional
# [12] = Selectivity index, ratio of GIC90 for cytotoxicity against mouse RAW264.7 cells to MIC90 for Antitubercular activity against Mycobacterium smegmatis mc2155 ATCC 700084; format: toxicity, cell-based; details: read-out: Selectivity Index
# [13] = Selectivity index, ratio of GIC90 for cytotoxicity against human THP-1 cells to MIC90 for Antitubercular activity against Mycobacterium smegmatis mc2155 ATCC 700084; format: toxicity, cell-based; details: read-out: Selectivity Index
# [14] = Selectivity index, ratio of GIC90 for Cytotoxicity against mouse RAW264.7 cells MIC90 for Antitubercular activity against Mycobacterium aurum ATCC 10437; format: toxicity, cell-based; details: read-out: Selectivity Index
# [15] = Selectivity index, ratio of GIC90 for Cytotoxicity against human THP-1 cells to MIC90 for Antitubercular activity against Mycobacterium aurum ATCC 10437; format: toxicity, cell-based; details: read-out: Selectivity Index
# [16] = Selectivity index, ratio of GIC90 for Cytotoxicity against mouse RAW264.7 cells to MIC90 for Antitubercular activity against Mycobacterium bovis BCG ATCC 35734; format: toxicity, cell-based; details: read-out: Selectivity Index
# [17] = Selectivity index, ratio of GIC90 for Cytotoxicity against […] human THP-1 cells to MIC90 for Antitubercular activity against Mycobacterium bovis BCG ATCC 35734; format: toxicity, cell-based; details: read-out: Selectivity Index
# [18] = test system: Mycolicibacterium aurum; assay: Antimycobacterial activity against Mycobacterium aurum ATCC 10437 infected in RAW264.7 cells assessed as inhibition of growth at 16 ug/ml incubated for 72 hrs by SPOTi assay; format: functional; parameters: scale not given: the % may be the effect or the level left; details: dose 16 µg/ml
# [19] = test system: Mycolicibacterium smegmatis; assay: Synergistic antibacterial activity against Mycobacterium smegmatis mc2155 ATCC 700084 assessed as fractional inhibitory concentration in presence of isoniazid by checker board assay; format: functional
# [20] = test system: Mycolicibacterium smegmatis; assay: Synergistic antibacterial activity against Mycobacterium smegmatis mc2155 ATCC 700084 assessed as fractional inhibitory concentration in presence of rifampicin by checker board assay; format: functional
# [21] = Cmax in Sprague-Dawley rat at 1 mg/kg, iv; format: ADME, organism-based; parameters: route intravenous, dose 1 mg/kg; details: in vivo
# [22] = AUClast in Sprague-Dawley rat at 1 mg/kg, iv; format: ADME, organism-based; parameters: route intravenous, time 0 - last, dose 1 mg/kg; details: in vivo
# [23] = AUCinfinity in Sprague-Dawley rat at 1 mg/kg, iv; format: ADME, organism-based; parameters: time infinity, route intravenous, dose 1 mg/kg; details: in vivo
# [24] = Elimination half life in Sprague-Dawley rat at 1 mg/kg, iv; format: ADME, organism-based; details: in vivo, read-out: beta t1/2 (converted)
# [25] = Tlast in Sprague-Dawley rat at 1 mg/kg, iv; format: ADME, organism-based; details: in vivo
# [26] = Volume of distribution at steady state in Sprague-Dawley rat at 1 mg/kg, iv; format: ADME, organism-based; details: in vivo
# [27] = Hepatic clearance in Sprague-Dawley rat at 1 mg/kg, iv; format: ADME, organism-based, Liver; details: in vivo
# [28] = Cmax in Sprague-Dawley rat at 5 mg/kg, po; format: ADME, organism-based; parameters: route oral, dose 5 mg/kg; details: in vivo
# [29] = AUClast in Sprague-Dawley rat at 5 mg/kg, po; format: ADME, organism-based; parameters: time 0 - last, route oral, dose 5 mg/kg; details: in vivo
# [30] = AUCinfinity in Sprague-Dawley rat at 5 mg/kg, po; format: ADME, organism-based; parameters: time infinity, route oral, dose 5 mg/kg; details: in vivo
# [31] = Elimination half life in Sprague-Dawley rat at 5 mg/kg, po; format: ADME, organism-based; details: in vivo, read-out: beta t1/2 (converted)
# [32] = Tlast in Sprague-Dawley rat at 5 mg/kg, po; format: ADME, organism-based; details: in vivo
# [33] = Oral bioavailability in Sprague-Dawley rat at 5 mg/kg; format: ADME, organism-based; details: in vivo
# [34] = test system: Mycobacterium tuberculosis; assay: microbe, parasite or virus in culture; details: H37Rv ATCC 27294, 192 h
# [35] = test system: Mycobacterium tuberculosis; assay: microbe, parasite or virus in culture; details: H37Rv ATCC 27294, 192 h; remark: listed apart in the source
# [36] = test system: Mycolicibacterium smegmatis; assay: Bactericidal activity against Mycobacterium smegmatis mc2155 ATCC 700084 assessed as inhibition of bacterial growth preincubated for 48 hrs followed by agar surface scraped and transfer to GAST medium and measured after 5 days by HT-SPOTi assay; format: functional, organism-based; details: time 7.0 day
SMILES,MIC90 [1] [µg/mL],MIC90 [2] [µg/mL],MIC90 [3] [µg/mL],MIC90 [4] [µg/mL],Activity [6] [%],Tm [7] [°C],Tm [8] [°C],Activity [9],GI90 [10] [µg/mL],GI90 [11] [µg/mL],selectivity ratio [12],selectivity ratio [13],selectivity ratio [14],selectivity ratio [15],selectivity ratio [16],selectivity ratio [17],Activity [18] [%],FIC [19],FIC [20],Cmax [21] [ng/mL],other results
Oc1ccccc1C1=NNC(c2ccc(Br)cc2)C1 (stereo not given),4,64,8,128,51.76,2,2.5,Active,128,64,32,16,8,8,16,16,90,0.6,1.12,505,Activity [5]: Active; AUC(0-t) [22]: 155 ng·h/mL; AUC(0-inf) [23]: 167 ng·h/mL; half-life [24]: 5.42 h; Tlast [25]: 12 h; Vdss [26]: 17.3 kg/L; CLH [27]: 100 mL/min/kg; Cmax [28]: 47.4 ng/mL; AUC(0-t) [29]: 167 ng·h/mL; AUC(0-inf) [30]: 184 ng·h/mL; half-life [31]: 5.32 h; Tlast [32]: 24 h; bioavailability [33]: 22%; MIC90 [34]: 8 µg/mL; MIC90 [35]: 128 µg/mL
Oc1ccccc1C1=NNC(c2ccc(Cl)cc2)C1 (stereo not given),4,64,16,128,54.7,2,2,Active,128,64,32,16,8,8,16,16,90,0.6,1.12,448,AUC(0-t) [22]: 190 ng·h/mL; AUC(0-inf) [23]: 197 ng·h/mL; half-life [24]: 4.76 h; Tlast [25]: 12 h; Vdss [26]: 11.5 kg/L; CLH [27]: 84.8 mL/min/kg; Cmax [28]: 51.6 ng/mL; AUC(0-t) [29]: 203 ng·h/mL; AUC(0-inf) [30]: 215 ng·h/mL; half-life [31]: 6.06 h; Tlast [32]: 24 h; bioavailability [33]: 21%; Activity [36]: Active; MIC90 [34]: 16 µg/mL; MIC90 [35]: 128 µg/mL
